Reference: patent US11052158B2, “Delivery of urea to cells of the macula and retina using liposome constructs” (priority 2016, dated 2021)
Read-outs that look alike come from different tables or passages of the source.

What was measured:
[1] = test system: eyes of New Zealand white rabbits
From the text: Female New Zealand white rabbits were obtained from Western Oregon Rabbit Co. (Philomath, Oreg.) and were housed and cared for in compliance with the regulations of the USDA Animal Welfare Act and under the review and approval of the institution's Animal Care and Use Committee.
Prior to placement on study, each animal underwent an ophthalmic examination (slit-lamp biomicroscopy and indirect ophthalmoscopy). […] The acceptance criteria for placement on study were scores of “0” for all variables.
Six female New Zealand White rabbits (two per subgroup) were administered urea-encapsulated liposome constructs (58 mol % DOPC, 42 mol % cholesterol) intravitreally (IVT) as a single dose into both eyes (OU). Animals were anesthetized with an intramuscular (IM) injection of ketamine hydrochloride (30 mg/kg), xylazine (5 mg/kg), and acepromazine (3 mg/kg) followed by isoflurane by inhalation (1-2.5%) in oxygen (1 L/min). One to two drops of topical proparacaine hydrochloride anesthetic (0.5%) were applied to the animal's eyes prior to the surgical procedure. Animals were kept anesthetized with their heads stabilized for three hours post dose, with one eye facing up and the other eye facing down.
After three hours, a clinical ophthalmic examination was performed, animals were euthanized. Vitreous humor (VH) was collected as 3 fractions. Pupils were dilated using one drop each of 10% phenylephrine and 1% tropicamide. Two 18G needles were inserted into the eye at the 3 o'clock and 9 o'clock position and advanced into the VH, one with the bevel pointed up towards the lens and the other with the bevel pointed down toward the retina. Three hundred μL of VH were drawn up through each needle, after which each needle was removed from the eye. The eye was then harvested and enucleated. Following enucleation, the remaining VH was collected as the third fraction. Samples from each eye in each animal remained separate and were not pooled. The weight of ocular tissues was recorded. Individual VH fractions were weighed separately. VH fractions were centrifuged at 16,100×g at room temperature for 20-30 minutes. The supernatant was separated. Pellets containing liposome constructs and supernatant were snap frozen separately on dry ice and stored at −60 to −80° C. Retina was also collected from these animals, snap frozen on dry ice, and stored at −60 to −80° C.
Two additional animals (one per subgroup) were administered a single or double dose of free urea solution IVT into the right eye (OD) and balanced salt solution (BSS) into the left eye (OS). Animals were anesthetized with an IM injection of ketamine hydrochloride (30 mg/kg) and xylazine (5 mg/kg). One to two drops of topical proparacaine hydrochloride anesthetic (0.5%) were applied to the animal's eyes prior to the surgical procedure.
Clinical ophthalmic examinations, fundus photography, and optical coherence tomography (OCT) were performed in these animals on Days 0-3, 4 (AM and PM), 8 (±1), 14, 21, and 28 post dose. For OCT, pupils were dilated with one drop each of 10% phenylephrine and 1% tropicamide approximately 10-15 minutes prior to imaging. Images were taken using the Spectralis® instrumentation (Heidelberg Engineering, Inc., Heidelberg, Germany).

[2] = test system: eyes of New Zealand white rabbits; conditions: for PVD observations by OCT: OD
Method: Five female New Zealand White rabbits were given a single administration of urea solution IVT into both eyes (OU) at doses of 2.5, 5, 10, 25 and 50 mg/eye.
Prior to placement in the study, each animal underwent an ophthalmic examination (slit-lamp biomicroscopy and indirect ophthalmoscopy). Ocular findings were scored according to a modified McDonald-Shadduck Scoring System. The acceptance criteria for placement on study were scores of “0” for all variables.
All procedures were performed using sterile technique. Animals were anesthetized for IVT injections, OCT, and B-Scan imaging with an IM injection of ketamine hydrochloride (50 mg/kg for imaging, 15-30 mg/kg for IVT injections) and xylazine (5 mg/kg). For one animal, anesthesia was prolonged via inhaled isoflurane (1-1.5% in 1.5-2 L/min oxygen) during baseline imaging due to extended duration of imaging. For another animal, inhaled isoflurane (2% in 1.5 L/min oxygen) was used to anesthetize the animal for IVT injections, because the animal had undergone baseline imaging (which included ketamine/xylazine anesthesia) earlier in the same day. One to two drops of topical proparacaine hydrochloride anesthetic (0.5%) were applied to the animal's eyes prior to the surgical procedure.
Prior to IVT injection, eyes were cleaned with Betadine and then rinsed with BSS. Using a ⅝ inch needle, injections were made 3 to 4 mm away from the limbus. Once the needle had been inserted, urea solution or BSS was injected. The needle was removed and the eye rinsed with BSS. Animals were recovered immediately after dosing and monitored during recovery. Triple antibiotic ophthalmic ointment was administered to the eyes during recovery.
Animals were euthanized on Day 35 (±4) and their eyes (whole globe) were collected and submitted for histopathological analysis.
Ophthalmic examinations (slit-lamp biomicroscopy and indirect ophthalmoscopy) were performed on Days −3 or 0 (baseline prior to test/control article administration), 1, 4, 7 or 8, 14, 21, and 35. Day 4 examinations were performed at the beginning of the workday. Day 21 examinations were performed only on Groups 1, 2, and 5. Ocular findings were scored according to a modified McDonald-Shadduck Scoring System. […] Observations included assessment of the development and time course of PVD.
Images of the fundus were taken on Days −3 or 0 (baseline prior to drug or BSS administration), 1, 4, 7 or 8, 14, 21, and 35. Day 4 images were taken at the beginning of the workday. Day 21 images were taken only of Groups 1, 2, and 5. Animals were not anesthetized for imaging.
OCT was performed on Days −3 or 0 (baseline prior to test/control article administration), 1, 4, 7 or 8, 14, 21, and 35. Day 4 images were taken at the beginning of the workday. Day 21 images were taken only of Groups 1, 2, and 5. Animals were anesthetized as described above. A total of 8 images per rabbit per day was acquired.
B-Scan ultrasound images were taken on Days −3 or 0 (baseline prior to test/control article administration) and on Day 35.

## NC(N)=O [urea, Urea]
[1]; 96 and 192 mg/eye IVT, OD
  vitreous clouding (fundus photography): clouding of the OD vitreous from Day 0 through Day 3
[1]; 96 and 192 mg/eye IVT, OD, at the site of delivery, peaked Days 3-7
  toxicity from Day 3 onward (fundus imaging): severe retinal folding and vascular hemorrhage
[1]; 96 and 192 mg/eye IVT, peaked between Days 3 and 7, then subsided
  retinal detachment (OCT): retina had detached mostly at the ganglion cell layer
[1]; Subgroup 2a, 96 mg/eye IVT, OD
  days on which OCT imaging showed PVD: Day 3
[1]; Subgroup 2b, 192 mg/eye IVT, OD
  days on which OCT imaging showed PVD: Days 4 (AM and PM), 7, and 14
[1]; free urea 96 mg/eye (single dose) or 192 mg/eye (double dose) IVT, OD
  time to development of PVD: ≤ 2 days
[1]; immediately after IVT injection, resolved over the next few days in surviving animals
  ocular irritation and swelling after IVT injection: ocular irritation and swelling were observed
[1]; single IVT dosing, liposome constructs 56-96 mg total urea/eye, free urea 96 or 192 mg/eye
  adverse effects on body weights and general health: No adverse effects on body weights and no severe adverse effects on general health
[2]; 2.5-50 mg/eye IVT, up to Day 35
  PVD in clinical ophthalmic examinations: No evidence of PVD
[2]; Group 1, 5 mg urea IVT
  PVD observations by OCT: Partial PVD on Day 35
[2]; Group 2, 10 mg urea IVT
  PVD observations by OCT: Partial PVD on Day 7 and beyond
[2]; Group 4, 50 mg/eye
  PVD in B-scan images, Day 35: evidence of PVD in the right eye (OD)
[2]; Group 5, 2.5 mg urea IVT
  PVD observations by OCT: Possible partial PVD on Day 4, none observed
[2]; other animals (2.5, 5, 10, 25 mg/eye)
  PVD in B-scan images, Day 35: no PVD could be detected
